# Experimental data from US12421211B2, “Heterocyclic compounds” (Hoffmann-La Roche Inc., priority 2021, dated 2025).
# Counter-ions that a name gives are not always drawn.
# Tested on: Acinetobacter baumannii ATCC17961
# Assay: Antimicrobial susceptibility testing: 90% growth inhibitory concentration (IC90) determination
# Assay type: cell-based
# Details: 90% growth inhibitory concentration, Acinetobacter baumannii ATCC17961, Iso-Sensitest broth, OD 600 nm over 16 h; read-out: ATCC 17961 IC90
# Procedure, shortened: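 Growth inhibition derived in log phase from OD600 kinetics (every 20 minutes, 16h, 35±2° C) of ATCC17961 in Iso-Sensitest medium, inoculum ~5×10^5 CFU/ml. Compounds tested as twofold series, 10 points (e.g. 50 to 0.097 μM final); IC90 and IC50 reported.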
row,Molecule,IC90 [nM]
1,"COCCn1cc(-c2ccc(-c3cnc(C(=O)Nc4ccc(C(=O)N5CCN(C(=O)C6[C@H]7C[N+](C)(C)C[C@@H]67)CC5)c(Cl)c4)n3C)c(F)c2F)c(C)n1 (stereo partly drawn) [Example B25, N-[3-chloro-4-[4-[(1R,5S)-3,3-dimethyl-3-azoniabicyclo[3.10]hexane-6-carbonyl]piperazine-1-carbonyl]phenyl]-5-[2,3-difluoro-4-[1-(2-methoxyethyl)-3-methyl-pyrazol-4-yl]phenyl]-1-methyl-imidazole-2-carboxamide; formate]",270
2,"cis 2-[1-(azetidin-3-ylmethyl)-4-[4-[2-chloro-4-[[5-[3-fluoro-4-[1-(2-methoxyethyl)-3-methyl-pyrazol-4-yl]phenyl]-1-methyl-imidazole-2-carbonyl]amino]benzoyl]piperazine-1-carbonyl]piperidin-1-ium-1-yl]acetic acid; 2,2,2-trifluoroacetate [Example O7]",140

# Same assay, conditions: Acinetobacter baumannii, ATCC17961, 16 h, 90% growth inhibitory concentration, Acinetobacter baumannii ATCC17961, Iso-Sensitest broth, OD 600 nm over 16 h; read-out: ATCC 17961 IC90
row,IC90 [nM],Molecule
1,520,"CC(CO)Cn1cc(-c2ccc(-c3cnc(C(=O)Nc4ccc(C(=O)N5CCN(C(=O)C6CC[N+](C)(C)CC6)CC5)c(Cl)c4)n3C)c(F)c2F)c(C(F)(F)F)n1 (stereo not shown) [Example F7, N-[3-chloro-4-[4-(1,1-dimethylpiperidin-1-ium-4-carbonyl)piperazine-1-carbonyl]phenyl]-5-[2,3-difluoro-4-[1-(3-hydroxy-2-methyl-propyl)-3-(trifluoro-methyl)pyrazol-4-yl]phenyl]-1-methyl-imidazole-2-carboxamide; formate]"
2,570,"Cc1nn(Cc2ccc(N)cn2)cc1-c1ccc(-c2cnc(C(=O)Nc3ccc(C(=O)N4CCN(C(=O)C5CC[N+](C)(C)CC5)CC4)c(Cl)c3)n2C)c(F)c1F [Example F43, 5-[4-[1-[(5-amino-2-pyridyl)methyl]-3-methyl-pyrazol-4-yl]-2,3-difluoro-phenyl]-N-[3-chloro-4-[4-(1,1-dimethylpiperidin-1-ium-4-carbonyl)piperazine-1-carbonyl]phenyl]-1-methyl-imidazole-2-carboxamide; chloride]"
3,55,"COCCn1ncc(-c2ccc(-c3cnc(C(=O)Nc4ccc(C(=O)N5CCN(C(=O)[C@@H]6C[C@@H](O)C[N+]6(C)C)CC5)c(Cl)c4)n3C)c(F)c2F)c1C [Example F15, N-[3-chloro-4-[4-[(2S,4R)-4-hydroxy-1,1-dimethyl-pyrrolidin-1-ium-2-carbonyl]piperazine-1-carbonyl]phenyl]-5-[2,3-difluoro-4-[1-(2-methoxyethyl)-5-methyl-pyrazol-4-yl]phenyl]-1-methyl-imidazole-2-carboxamide; 2,2,2-trifluoroacetate]"
4,110,"COCCn1ncc(-c2ccc(-c3cnc(C(=O)Nc4ccc(C(=O)N5CCN(C(=O)C6CC[N+](C)(C)CC6)CC5)c(Cl)c4)n3C)c(F)c2F)c1C [Example A4, N-[3-chloro-4-[4-(1,1-dimethylpiperidin-1-ium-4-carbonyl)piperazine-1-carbonyl]phenyl]-5-[2,3-difluoro-4-[1-(2-methoxyethyl)-5-methyl-pyrazol-4-yl]phenyl]-1-methyl-imidazole-2-carboxamide; formate]"
5,89,"Cc1nn(CC(=O)Nc2ccccn2)cc1-c1ccc(-c2cnc(C(=O)Nc3ccc(C(=O)N4CCN(C(=O)C5CC[N+](C)(C)CC5)CC4)c(Cl)c3)n2C)c(F)c1F [Example G14, N-[3-chloro-4-[4-(1,1-dimethylpiperidin-1-ium-4-carbonyl)piperazine-1-carbonyl]phenyl]-5-[2,3-difluoro-4-[3-methyl-1-[2-oxo-2-(2-pyridylamino)ethyl]pyrazol-4-yl]phenyl]-1-methyl-imidazole-2-carboxamide; formate]"
6,200,"Cc1n[nH]cc1-c1ccc(-c2cnc(C(=O)Nc3ccc(C(=O)N4CCC(CN5CC[N+](C)(C)CC5=O)CC4)c(Cl)c3)n2C)c(F)c1F [Example D21, N-[3-chloro-4-[4-[(4,4-dimethyl-2-oxo-piperazin-4-ium-1-yl)methyl]piperidine-1-carbonyl]phenyl]-5-[2,3-difluoro-4-(3-methyl-1H-pyrazol-4-yl)phenyl]-1-methyl-imidazole-2-carboxamide; formate]"
7,60,"Cc1n[nH]cc1-c1ccc(-c2cnc(C(=O)Nc3ccc(C(=O)N4CCN(C(=O)CCC[N+](CC(=O)O)(CC5CNC5)CC5CNC5)CC4)c(Cl)c3)n2C)c(F)c1F [Example D42, bis(azetidin-3-ylmethyl)-(carboxymethyl)-[4-[4-[2-chloro-4-[[5-[2,3-difluoro-4-(3-methyl-1H-pyrazol-4-yl)phenyl]-1-methyl-imidazole-2-carbonyl]amino]benzoyl]piperazin-1-yl]-4-oxo-butyl]ammonium; formic acid; formate]"
8,800,"COCCn1cc(-c2ccc(-c3cnc(C(=O)Nc4ccc(C(=O)N5CCN(C(=O)[C@@H]6C[C@@H](O)C[N+]6(C)C)CC5)c(Cl)c4)n3C)c(F)c2F)c(C(C)C)n1 [Example F11, N-[3-chloro-4-[4-[(2S,4R)-4-hydroxy-1,1-dimethyl-pyrrolidin-1-ium-2-carbonyl]piperazine-1-carbonyl]phenyl]-5-[2,3-difluoro-4-[3-isopropyl-1-(2-methoxyethyl)pyrazol-4-yl]phenyl]-1-methyl-imidazole-2-carboxamide; formate]"
9,240,"COCCn1cc(-c2ccc(-c3cnc(C(=O)Nc4ccc(C(=O)N5CCN(C(=O)[C@@H]6C[C@@H](O)C[N+]6(C)CCCO)CC5)c(Cl)c4)n3C)c(F)c2F)c(C)n1 (stereo partly drawn) [Example B27, N-[3-chloro-4-[4-[(2S,4R)-4-hydroxy-1-(3-hydroxypropyl)-1-methyl-pyrrolidin-1-ium-2-carbonyl]piperazine-1-carbonyl]phenyl]-5-[2,3-difluoro-4-[1-(2-methoxyethyl)-3-methyl-pyrazol-4-yl]phenyl]-1-methyl-imidazole-2-carboxamide; iodide]"
10,400,"Cn1c(-c2ccc(-c3c[nH]nc3-c3ccccc3)c(F)c2F)cnc1C(=O)Nc1ccc(C(=O)N2CCN(C(=O)C3CC[N+](C)(C)CC3)CC2)c(Cl)c1 [Example F27, N-[3-chloro-4-[4-(1,1-dimethylpiperidin-1-ium-4-carbonyl)piperazine-1-carbonyl]phenyl]-5-[2,3-difluoro-4-(3-phenyl-1H-pyrazol-4-yl)phenyl]-1-methyl-imidazole-2-carboxamide; formate]"
11,51,"COCCn1ncc(-c2ccc(-c3cnc(C(=O)Nc4ccc(C(=O)N5CCN(C(=O)C6CCNCC6O)CC5)c(Cl)c4)n3C)c(F)c2F)c1C (stereo not shown) [Example D25, N-[3-chloro-4-[4-(3-hydroxypiperidine-4-carbonyl)piperazine-1-carbonyl]phenyl]-5-[2,3-difluoro-4-[1-(2-methoxyethyl)-5-methyl-pyrazol-4-yl]phenyl]-1-methyl-imidazole-2-carboxamide; formic acid]"
12,160,"Cc1c(-c2ccc(-c3cnc(C(=O)Nc4ccc(C(=O)N5CCN(C(=O)C6CC[N+](C)(C)CC6)CC5)c(Cl)c4)n3C)c(F)c2F)cnn1CCNC(=O)NC(C)(C)C [Example H4, 5-[4-[1-[2-(tert-butylcarbamoylamino)ethyl]-5-methyl-pyrazol-4-yl]-2,3-difluoro-phenyl]-N-[3-chloro-4-[4-(1,1-dimethylpiperidin-1-ium-4-carbonyl)piperazine-1-carbonyl]phenyl]-1-methyl-imidazole-2-carboxamide; formate]"
13,320,"COCCn1nc(C)c(-c2ccc(-c3cnc(C(=O)Nc4ccc(C(=O)N5CCN(C(=O)C[N+]6(C)CCC(O)C6)CC5)c(Cl)c4)n3C)c(F)c2F)c1C (stereo not shown) [Example C11, N-[3-chloro-4-[4-[2-(3-hydroxy-1-methyl-pyrrolidin-1-ium-1-yl)acetyl]piperazine-1-carbonyl]phenyl]-5-[2,3-difluoro-4-[1-(2-methoxyethyl)-3,5-dimethyl-pyrazol-4-yl]phenyl]-1-methyl-imidazole-2-carboxamide; formate]"
14,370,"Cn1c(-c2ccc(-c3ccc(N)cn3)c(F)c2F)cnc1C(=O)Nc1ccc(C(=O)N2CCN(C(=O)C3CC[N+](C)(C)CC3)CC2)c(Cl)c1 [Example F65, 5-[4-(5-amino-2-pyridyl)-2,3-difluoro-phenyl]-N-[3-chloro-4-[4-(1,1-dimethylpiperidin-1-ium-4-carbonyl)piperazine-1-carbonyl]phenyl]-1-methyl-imidazole-2-carboxamide; formate]"
15,320,"Cc1nn(CC(=O)NC(C)(C)C)cc1-c1ccc(-c2cnc(C(=O)Nc3ccc(C(=O)N4CCN(C(=O)C5CC[N+](C)(C)CC5)CC4)c(Cl)c3)n2C)c(F)c1F [Example G2, 5-[4-[1-[2-(tert-butylamino)-2-oxo-ethyl]-3-methyl-pyrazol-4-yl]-2,3-difluoro-phenyl]-N-[3-chloro-4-[4-(1,1-dimethylpiperidin-1-ium-4-carbonyl)piperazine-1-carbonyl]phenyl]-1-methyl-imidazole-2-carboxamide; formate]"

# Same assay, conditions: Acinetobacter baumannii, ATCC17961, 16 h, read-out: ATCC 17961 IC90
row,Molecule,IC90 [nM]
1,"Cc1nn(CC(=O)Nc2ccc(F)nn2)cc1-c1ccc(-c2cnc(C(=O)Nc3ccc(C(=O)N4CCN(C(=O)C5CC[N+](C)(C)CC5)CC4)c(Cl)c3)n2C)cc1F [Example L2, N-[3-chloro-4-[4-(1,1-dimethylpiperidin-1-ium-4-carbonyl)piperazine-1-carbonyl]phenyl]-5-[3-fluoro-4-[1-[2-[(6-fluoropyridazin-3-yl)amino]-2-oxo-ethyl]-3-methyl-pyrazol-4-yl]phenyl]-1-methyl-imidazole-2-carboxamide; formate]",168
2,"Cc1nn(CC(F)F)cc1-c1ccc(-c2cnc(C(=O)Nc3ccc(C(=O)N4CCN(C(=O)C5CC[N+](C)(CC(N)=O)CC5)CC4)c(Cl)c3)n2C)c(F)c1F (stereo not shown) [Example B7, N-[4-[4-[1-(2-amino-2-oxo-ethyl)-1-methyl-piperidin-1-ium-4-carbonyl]piperazine-1-carbonyl]-3-chloro-phenyl]-5-[4-[1-(2,2-difluoroethyl)-3-methyl-pyrazol-4-yl]-2,3-difluoro-phenyl]-1-methyl-imidazole-2-carboxamide; formate]",170
